Results as given in publication PMC12067444, “Synthesis and Pharmacological Characterization of Novel Peripheral Cannabinoid-1 Receptor Blockers Based on a Tricyclic Scaffold” (Journal of Medicinal Chemistry, 2025).
Entries after “also recorded” stand apart in the source; their conditions may differ.

Legend:
[1] = tested on: bacteria strains TA98, TA100; test: Mini-Ames assay, overall result; format: cell-based
Protocol: Mini Am es assay. To conduct the assay, top agar was melted with a microwave and maintained at a temper atur e ≥47 °C in a water bath. T he assay was performed using a heat block set to 45 °C ± 2 °C. 12 × 75 mm test tubes were prepared in duplicates. For each concentration, the following components were added sequentially to a test tube:
[…] The mixture was vortexed and then dispensed into w ells using a dispo sable pipette. The plates wer e then incubated at 37±2 °C for approximately 48 to 72 hours.
BBbbbb BBBBbbbb BBBB = AAAAbbbbbbAAbb nnnnnnbbbbbb bboo bbbbAAbbbbbbbbnnbbbb oobbbb bbbb eeee dd bbbbbb AAbbbbnn gg AAAAbbbbbbAAbb nnnnnnbbbbbb bbBB bbbbAAbbbbbbbbnnbbbb BBbbbb DDDDDDDD nn bbAAbbbbaaAAbb AAbbbbnnaa The mutagenicity of the compound was determined by evaluating the number of revertant colonies in strains TA98 and TA100. A compound was […]
related and if the fold increase in revertants (F) was equal to or greater than 2 for […]
background lawn growth on the agar plates. A scoring system ranging from 0 to 4 […]
complete cytotoxicity, while scores 1, 2, and 3 represented 25%, 50%, and 75% growth, respectively. A score of 4 signified full '100%' growth. The background […]
background lawn and required magnification for visualization. […]

[2] = Tissue distribution after chronic oral administration in diet-induced obese mice; format: in vivo; settings: C57Bl/6J, mouse, brain; 1 mg/kg PO for 24 days, DIO mice, 24 h after last dose; read-out: brain concentration after chronic treatment
Protocol: Tissue distribution after chronic administration was conducted similarly, except tissue collection was performed 24 h after the last drug administration and analyzed in the same manner as previously described.
Supplementary F igure 2. BNS808 biodistribution and pharm acokinet ics aft er chronic P O adm inist rat ion. The accumulation of BNS808 in organs/plasma was evaluated by analyzing the BNS808 levels in the plasma, brain, and liver post-chronic administration of 1 mg/kg PO for 24 days in diet-induced obese mice. Data r epr esent the mean ± SE M of 4 mice per gr oup.
(1 picture or pasted object on this page, not shown here)

C57BL/6J mice = test: CB1R agonist (HU210)-induced hypomotility; format: in vivo, mouse; settings: 1 or 10 mg/kg PO; HU210 30 μg/kg IP; 4 h
Protocol: The activity profiles of the mice were evaluated using the Promethion High-Definition Behavioral Phenotyping System (Sable Instruments, Inc., Las Vegas, NV, USA). MetaScreen software version 2.2.18.0 was employed for data acquisition and instrument control, while ExpeData version 1.8.4 was used for processing raw data. An analysis script detailing all aspects of the data transformation was utilized. Mice with unrestricted access to food and water were subjected to a standard 12 h light/12 h dark cycle, comprising a 16-h acclimation period followed by 24 h of sampling. Ambulatory activity and position were concurrently quantified by the number of disruptions of the infrared beams in three dimensions (XYZ) with a beam spacing of 0.25 cm.
The objective of this experiment was to evaluate the capability of BNS808 and rimonabant (utilized as a positive control) in inhibiting hypomotility induced by a CB1R agonist (HU210). Male wild-type C57BL/6J mice were administered a single dose of either the vehicle, rimonabant (10 mg/kg, PO), or BNS808 (1 or 10 mg/kg, PO). Thirty minutes following this administration, the mice received a single dose of HU210 (30 μg/kg, IP). The locomotor activity was quantified by assessing the disruptions of infrared beams in two dimensions for 4 h.

CB1R = target: T1, CB1R (Mus musculus, UniProt P47746); test: [35S]GTPγS binding - CB1R activity, mouse brain membranes; format: biochemical; settings: CP-55,940 as reference agonist
T1 construct: crude membranes from mouse brain; from tissue; host or cells: mouse brain cortex (without cerebellum) membranes, C57Bl/6Jhsd mice
Protocol: Mouse brains were dissected, and P2 membranes were prepared and resuspended at ∼10 μg protein/μL in 350 μL assay buffer containing 0.14% BSA. Ligand-stimulated [^35S]GTPγS binding was assayed as described in the SI. […]
utilizing [3H] C P -55,940 as the radioligand and crude membranes from humans for CB1 R or CB2 R. T he compounds were tested at various concentrations (eight points with a five-fold serial dilution starting at two m M) , and their ability to displace [3H] CP - 55, 940 was evaluated. Upon completion of the binding assays, the reaction mixture was filtered through GF/C plates, followed by four washes with cold wash buffer. After drying for one hour, 50 μL of Perkin Elmer Microscint 20 cocktail was added to the filter plate wells, and the bound [3H] C P -55,940 radioligand was measured using a β counter. All data points were duplicated, and Ki values were determined from two independent experiments using GraphPad Prism 7.02 analysis software, extracted through nonlinear regression analysis.
Tissue preparation for [ 35 S]GTPγS binding. […]
mM EGTA, 9 mM MgCl 2, and 150 mM NaCl, followed by homogenization. The protein concentration of the suspension was determined using the BCA assay, and the suspen sion was diluted to a final concentration of 2 mg/mL in assay buffer. […]
Supplementary Figure 1. […] The tested compounds were evaluated for their ability to inhibit CB1R-mediate d […]

T1 sequence (P47746 whole entry): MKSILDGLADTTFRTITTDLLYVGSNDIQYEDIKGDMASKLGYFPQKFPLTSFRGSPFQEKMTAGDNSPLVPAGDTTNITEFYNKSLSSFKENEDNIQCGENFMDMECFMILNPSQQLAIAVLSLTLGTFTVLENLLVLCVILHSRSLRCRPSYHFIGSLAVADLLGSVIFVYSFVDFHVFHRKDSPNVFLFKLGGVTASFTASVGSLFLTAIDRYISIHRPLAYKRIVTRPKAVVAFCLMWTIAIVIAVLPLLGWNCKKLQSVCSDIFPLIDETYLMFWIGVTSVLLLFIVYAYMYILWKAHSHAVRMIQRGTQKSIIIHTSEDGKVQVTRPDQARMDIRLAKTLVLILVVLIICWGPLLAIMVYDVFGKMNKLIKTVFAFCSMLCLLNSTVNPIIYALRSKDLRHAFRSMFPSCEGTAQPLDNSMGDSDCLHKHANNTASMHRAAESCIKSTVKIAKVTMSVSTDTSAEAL

Row | SMILES | toxicity in mini-Ames assay ([1]; 31.25 to 1000 μg/well, TA98 and TA100) | mini-Ames assay (mutagenic effect) ([1]; TA98 and TA100, with and without S9) | concentration at 24 h [2] | antagonism of HU-210-induced hypoactivity (C57BL/6J mice) | CB1R functional profile in GTPγS assay (CB1R)
1 | O=S(=O)(NC1CCCOc2c1nn(-c1ccccc1Cl)c2-c1ccc(Cl)cc1)c1ccc(Cl)cc1 (centres unmarked) [BNS808, 4-chloro-N-[2-(2-chlorophenyl)-3-(4-chlorophenyl)-5,6,7,8-tetrahydrooxepino[3,2-c]pyrazol-8-yl]benzenesulfonamide] | no toxicity | nonmutagenic ^b | ~20 ng/g | unable to antagonize the hypoactivity mediated by HU-210 | 
2 | Cc1ccc(S(=O)(=O)NC2CCCOc3c2nn(-c2ccccc2Cl)c3-c2ccc(Cl)cc2)cc1 (centres unmarked) [BNS807] |  |  |  |  | inverse agonistic profile; also recorded: inverse agonist
